System: K562
Test: Cytotoxicity against human K562 cells after 48 hrs by MTT assay
Type: functional, cell-based
Conditions: K562, 48 h

Compared with `CNC(=S)N/N=C(\C)c1ccccn1`, `C/C(=N\NC(N)=S)c1ccccn1` is 6.5-fold higher in IC50: 4.58 µM for the first, 29.7 µM for the second. The first is the more potent here.

In the case of `S=C(N/N=C(\c1ccccc1)c1ccccn1)Nc1ccccc1`, the IC50 is reported as 1.43 µM.

Source: ChEMBL document CHEMBL1177888, “Mn(II), Co(II) and Zn(II) complexes with heterocyclic substituted thiosemicarbazones: synthesis, characterization, X-ray crystal structures and antitumor comparison” (Eur J Med Chem, 2010)
